Test: Critical micelle formation concentration (CMC) by concentration-dependent determination of the surface tension
Format: physicochemical
Conditions: aqueous solution; from concentration-dependent surface tension
Experimental: The CMC was determined by the concentration-dependent determination of the surface tension. The method is described by, i.a., Elworthy and Mysels; J. Colloid Interface Sci., 21, 331, 1966; Mukerjee, Mysels; The Critical Micelle Conc. Of Aqu. Surfactant Systems, 1971, US National Bureau of Standards and G. Brosowski, M. Rohr, G. Lehmann; Fette, […], Anstrichsmittel [Fats, Soaps, Paints], 75, 335, 1973.

Row | Compound | Critical Micelle Formation Concentration (CMC)
1 | CN(CC(O)C(O)C(O)C(O)CO)C(=O)c1c(I)c(C(=O)N(C)CC(O)C(O)C(O)C(O)CO)c(I)c(N(CC(=O)O)C(=O)COCC(=O)N2CCN(S(=O)(=O)C(F)(F)C(F)(F)C(F)(F)C(F)(F)C(F)(F)C(F)(F)C(F)(F)C(F)(F)F)CC2)c1I (stereo not drawn) [Example 6 e] | 6.9e-05 mol/L
2 | O=C(CCC(=O)N1CCN(S(=O)(=O)C(F)(F)C(F)(F)C(F)(F)C(F)(F)C(F)(F)C(F)(F)C(F)(F)C(F)(F)F)CC1)Nc1c(I)c(C(=O)N(CC(O)CO)CC(O)CO)c(I)c(C(=O)N(CC(O)CO)CC(O)CO)c1I (stereo not drawn) [Example 4 c, N,N,N′,N′-Tetrakis-(2,3-dihydroxy-propyl)-5-{4-[4-(heptadecafluorooctane-1-sulfonyl)-piperazin-1-yl]-4-oxo-butyrylamino}-2,4,6-triiodo-isophthalamide] | 5.4e-05 mol/L
3 | CN(CC(O)C(O)C(O)C(O)CO)C(=O)c1c(I)c(NC(=O)COCC(=O)N2CCN(S(=O)(=O)C(F)(F)C(F)(F)C(F)(F)C(F)(F)C(F)(F)C(F)(F)C(F)(F)C(F)(F)F)CC2)c(I)c(C(=O)N(C)CC(O)C(O)C(O)C(O)CO)c1I (stereo not drawn) [Example 5 f, 2,4,6-Triiodo-N,N′-dimethyl-5-{2-[2-oxo-2-(4-(heptadecafluorooctane-1-sulfonyl)-piperazin-1-yl]-ethoxy]-acetylamino}-N,N′-bis-(2,3,4,5,6-pentahydroxyhexyl)-isophthalamide] | 0.00012 mol/L
4 | O=C(O)CN(C(=O)COCC(=O)N1CCN(S(=O)(=O)C(F)(F)C(F)(F)C(F)(F)C(F)(F)C(F)(F)C(F)(F)C(F)(F)C(F)(F)F)CC1)c1c(I)c(C(=O)N(CC(O)CO)CC(O)CO)c(I)c(C(=O)N(CC(O)CO)CC(O)CO)c1I (stereo not drawn) [Example 1 e, [{3,5-Bis-[bis-(2,3-dihydroxy-propyl)-carbamoyl]-2,4,6-triiodo-phenyl}-(2-{2-[4-(heptadecafluorooctane-1-sulfonyl)piperazin-1-yl]-2-oxo-ethoxy}-acetyl)-amino]-acetic Acid] | 6.4e-05 mol/L
5 | O=C(O)CN(C(=O)CCC(=O)N1CCN(S(=O)(=O)C(F)(F)C(F)(F)C(F)(F)C(F)(F)C(F)(F)C(F)(F)C(F)(F)C(F)(F)F)CC1)c1c(I)c(C(=O)N(CC(O)CO)CC(O)CO)c(I)c(C(=O)N(CC(O)CO)CC(O)CO)c1I (stereo not drawn) [Example 3 e, [{3,5-Bis-[bis-(2,3-dihydroxy-propyl)-carbamoyl]-2,4,6-triiodo-phenyl}-{4[4-(heptadecafluorooctane-1-sulfonyl)-piperazin-1-yl]-4-oxo-butyryl}-amino)-acetic Acid] | 5.4e-05 mol/L
6 | O=C(COCC(=O)N1CCN(S(=O)(=O)C(F)(F)C(F)(F)C(F)(F)C(F)(F)C(F)(F)C(F)(F)C(F)(F)C(F)(F)F)CC1)Nc1c(I)c(C(=O)N(CC(O)CO)CC(O)CO)c(I)c(C(=O)N(CC(O)CO)CC(O)CO)c1I (stereo not drawn) [Example 2 c] | 6.2e-05 mol/L

From patent publication US20030236407A1, “Perfluoroalkyl group-containing micelle-forming triiodoaromatic compounds, process for their production and their use as contrast media” (Schering AG, priority 2002, published 2003)
